According to patent US7994202B2, “Bicyclic nitrogen-containing heterocyclic compounds” (Asahi Kasei Pharma Corporation, priority 2008, dated 2011):

test system: SD rats; experiment: Action of extending interval of micturition in rat in wakefulness II (0.3% acetic acid-induced cystitis); type: in vivo; details: male SD rats in wakefulness, 0.3% acetic acid cystitis, intravenous
Description: SD rats (Charles River Laboratories Japan, Inc., male) were employed as experimental animals. Each rat was put under anesthesia by inhalation of 2% isoflurane (laughing gas:oxygen=7:3), and then was fixed in the supine position. Anesthesia was maintained by the inhalation of 2% isoflurane. The abdominal part was incised along the midline, and the urinary bladder was exposed from the intraperitoneal cavity. The vertex vesicae part was subjected to a small incision, and a polyethylene tube (PE-50: Becton Dickinson and Company) was inserted into the bladder and fixed. […] Thereafter, while physiological saline warmed to 37° C. was injected to the other end of the tube inserted into the bladder through one branch of a three-way stopcock at a rate of 3.0 mL/hr, the internal pressure of the bladder was continuously recorded from another branch using a pressure amplifier through a pressure transducer. The excreted urine was cumulatively accumulated in a vessel on a digital balance, and the weight change was simultaneously measured. […] The value obtained before the administration was taken from an average value of the values measured for 30 minutes before the administration, and the value obtained after the administration was taken from an average value of the values measured for 60 minutes immediately after the administration. […]

SMILES | amount of micturition
O=C(O)c1csc(-n2nc(-c3ccccc3)c3ccc(C(F)(F)F)cc32)n1 [Exp.77] | increase in the amount of micturition

same assay, conditions: male SD rats in wakefulness, 0.3% acetic acid cystitis, intravenous, 60 minutes after administration

SMILES | micturition interval extension [%]
O=C(O)c1csc(-n2nc(-c3ccccc3)c3ccc(C(F)(F)F)cc32)n1 [Exp.77] | ≥ 30

target: T1, human EP1 receptor (Homo sapiens, UniProt P34995); experiment: Receptor binding test using cells expressing human EP1 receptor ([3H]PGE2 binding inhibition, membrane fraction); details: membrane fraction of HEK293 cells expressing human EP1 receptor, [3H]PGE2 1 nM; read-out: Ki value in the measurement of [3H]PGE2 binding inhibitory activity
T1 construct: expressed in transfected cells
T1 sequence (P34995 1-402): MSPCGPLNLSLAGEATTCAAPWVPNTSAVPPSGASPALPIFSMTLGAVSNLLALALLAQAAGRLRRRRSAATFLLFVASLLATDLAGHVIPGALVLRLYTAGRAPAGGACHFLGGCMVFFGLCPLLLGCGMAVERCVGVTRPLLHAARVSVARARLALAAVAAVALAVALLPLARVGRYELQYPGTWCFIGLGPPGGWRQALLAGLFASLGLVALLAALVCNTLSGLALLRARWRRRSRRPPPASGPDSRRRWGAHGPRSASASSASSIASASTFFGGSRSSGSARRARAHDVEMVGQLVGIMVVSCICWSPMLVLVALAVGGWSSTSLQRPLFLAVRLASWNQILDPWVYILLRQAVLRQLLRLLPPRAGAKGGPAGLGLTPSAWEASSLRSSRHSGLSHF
Method: Receptor Binding Test Using Cells Expressing Human EP1 Receptor
Inhibitory activity of the test compounds on binding of [^3H]PGE2 in HEK293 cells stably expressing human EP1 receptor was measured.
HEK293 cells, which stably express human EP1 receptor, were established by using the gene for human EP1 receptor, and then a membrane fraction was prepared therefrom. Thus-prepared membrane fraction was incubated at 30° C. for 90 minutes with a reaction solution (200 μL/well) which includes the test compound and [^3H]PGE2. Upon the completion of the reaction, the reaction solution was aspirated off under reduced pressure, and the [^3H]PGE2 bound to the membrane fraction was trapped by using Unifilter Plateg CF/C (manufactured by Packard) and the bound radioactivity was counted with a liquid scintillator.
Kd value was obtained from a Scatchard plot. Non-specific binding was obtained from the binding in the presence of an excess amount (10 μM) of non-labeled PGE2. For the measurement of an inhibitory activity of the test compound on [^3H]PGE2 binding, [^3H]PGE2 (1 nM) and various concentrations of the test compound were added. Meanwhile, for all of the reactions, the buffer as described below was used.
Buffer; 10 mM MES/NaOH (pH 6.0), 10 mM MgCl2, 1 mM EDTA, 0.1% BSA
Dissociation constant of the compounds, i.e., Ki, was obtained according to the following equation. […]

Ki [nM] | SMILES
≤ 100 | O=C(O)c1csc(-n2nc(C3=CCCCO3)c3ccc(C(F)(F)F)cc32)n1 [Exp.105]
≤ 100 | O=C(O)c1csc(-n2nc(-c3ccccc3)c3ccc(C(F)(F)F)nc32)n1 [Exp.106]

target: T1, human EP1 receptor; experiment: Antagonist activity using cells expressing human EP1 receptor (intracellular Ca2+ assay, Fura 2-AM); type: cell-based; details: HEK293 cells stably expressing human EP1 receptor, PGE2 10 nM
Method: (§1) Measurement of an Antagonist Activity by Using Cells Expressing Human EP1 Receptor
Cells expressing human EP1 receptor were suspended in an assay buffer to the concentration of 5×10^6 cells/ml, added with Puronic F-127 (final concentration 0.2%), and Fura 2-AM (final concentration 5 uM), followed by incubation at 37° C. for 30 minutes. After washing twice with the assay buffer, the cells were again suspended in the assay buffer to 1×10^6 cells/60 ul, and then transferred to a 96 well UV plate (1×10^6 cells/60 ul/well). Thereafter, by using a fluorescent chemical screening system (FDSS4000, Hamamatsu Photonics K.K.), intracellular Ca^2+ concentration was measured after adding 20 ul of each of the test compounds and PGE2 (5× of the final concentration for both). Ca^2+ concentration was measured by determining fluorescence intensity after irradiation with two excitation wavelengths, i.e., 340 and 380 nm.
Furthermore, EP1 antagonist activity was calculated as a ratio (%) of inhibiting increase in intracellular Ca^2+ concentration by PGE2 (10 nM).
Assay buffer: 20 mM HEPES/KOH (pH 7.4), 115 mM NaCl, 5.4 mM KCl, 0.8 mM MgCl2, 0.8 mM CaCl2, 13.8 mM D-glucose, 0.1% BSA

IC50 [nM] | SMILES
100 to 300 | Cc1ccccc1-c1nn(-c2nc(C(=O)O)cs2)c2ccccc12 [Exp.9]
100 to 300 | O=C(O)c1csc(-n2nc(-c3cccc(O)c3)c3ccccc32)n1 [Exp.16]
≤ 100 | O=C(O)c1csc(-n2nc(C3=CCCCO3)c3ccc(C(F)(F)F)cc32)n1 [Exp.105]
≤ 100 | O=C(O)c1csc(-n2nc(-c3ccccc3)c3ccc(C(F)(F)F)nc32)n1 [Exp.106]

target: T1, human EP1 receptor; experiment: Antagonist activity using cells expressing human EP1 receptor (SRE-luciferase reporter activity, PGE2 10 nM); type: cell-based; details: HEK293 cells stably expressing human EP1 receptor, 6 hours, read-out: IC50 value in the measurement of antagonist activity using human EP1 receptor expressing cells
Description: as §1
As a result of searching Refseq Database for prostaglandin E receptor, genetic information of human EP1 (NM_000955) receptor was obtained. Based on this sequence information, human EP1 receptor gene was cloned by PCR using human cDNA as a template and by an ordinary method to give human EP1 receptor. Then, HEK293 in which the receptor is stably expressed was established, together with a reporter gene (SRE-Luciferase) in which serum responsible element (SRE) is added at the upstream region of firefly luciferase gene. The resulting cells were seeded to a 96 well plate (5×10^4 cells/well) and cultured for one day. To the plate, PGE2 (200 nM, final concentration 10 nM) and the test compound (in an amount of 1/20, 20× of the final concentration) were added to initiate the reaction. After allowing the reaction to proceed at 37° C. for 6 hours, the medium was aspirated off, added with a luminescent agent and the reporter activity was measured. […]

SMILES | IC50 [nM]
O=C(O)c1csc(Cn2nc(-c3ccccc3)c3ccccc32)n1 [Exp.7, 2-{(3-phenyl-1H-indazol-1-yl)methyl}thiazole-4-carboxylic acid] | 20 to 100
O=C(O)c1csc(-n2nc(-c3cccc(O)c3)c3ccccc32)n1 [Exp.16] | 20 to 100
O=C(O)c1ccc(-n2nc(-c3ccccc3)c3ccccc32)s1 [Exp.94] | 100 to 500
C=Cc1ccc2c(-c3ccccc3)nn(-c3nc(C(=O)OCC)cs3)c2c1 [Exp.116, Ethyl 2-(3-phenyl-6-vinyl-1H-indazol-1-yl)thiazole-4-carboxylate] | 20 to 100
CC(=O)Nc1ccc2c(-c3ccccc3)nn(-c3nc(C(=O)O)cs3)c2c1 [Exp.122] | 100 to 500
O=C(O)c1csc(-n2nc(-c3ccccc3)c3ccc(Sc4ccc(OC(F)(F)F)cc4)nc32)n1 [Exp.177] | 100 to 500
O=C(O)c1csc(-n2nc(-c3ccccc3)c3ccc(Sc4cccc(C(F)(F)F)c4)nc32)n1 [Exp.179] | 20 to 100
O=C(O)c1csc(-n2nc(-c3cccs3)c3ccccc32)n1 [Exp. 51] | 20 to 100
N#Cc1ccc2c(-c3ccccc3)nn(-c3nc(C(=O)O)cs3)c2c1 [Exp. 118, 2-(6-Cyano-3-phenyl-1H-indazol-1-yl)thiazole-4-carboxylic acid] | 20 to 100
Cn1cncc1C(=O)Nc1ccc2c(-c3ccccc3)nn(-c3nc(C(=O)O)cs3)c2c1 [Exp. 130] | 100 to 500
O=C(O)c1csc(-n2nc(-c3ccccc3)c3ccc(NC(=O)C4CCCC4)cc32)n1 [Exp. 131] | 100 to 500
O=C(O)c1csc(-n2nc(-c3ccccc3)c3ccc(NC(=O)C45CC6CC(CC(C6)C4)C5)cc32)n1 [Exp. 133] | 100 to 500
O=C(O)c1csc(-n2nc(-c3ccccc3)c3ccc(NC(=O)C4CC4)cc32)n1 [Exp. 135] | 100 to 500
CC(C)S(=O)(=O)Nc1ccc2c(-c3ccccc3)nn(-c3nc(C(=O)O)cs3)c2c1 [Exp. 141] | 100 to 500
CCC(C)S(=O)(=O)Nc1ccc2c(-c3ccccc3)nn(-c3nc(C(=O)O)cs3)c2c1 (stereo not drawn) [Exp. 142] | 100 to 500
O=C(O)c1csc(-n2nc(-c3ccccc3)c3ccc(NCc4ccccc4F)cc32)n1 [Exp. 145] | 100 to 500
O=C(O)c1csc(-n2nc(-c3ccccc3)c3ccc(NCc4cccc(F)c4)cc32)n1 [Exp. 146] | 100 to 500
O=C(O)c1csc(-n2nc(-c3ccccc3)c3ccc(NCc4ccc(F)cc4)cc32)n1 [Exp. 147] | 100 to 500
O=C(O)c1csc(-n2nc(-c3ccccc3)c3ccc(NCc4ccccn4)cc32)n1 [Exp. 148] | 20 to 100
O=C(O)c1csc(-n2nc(-c3ccccc3)c3ccc(NCc4cccnc4)cc32)n1 [Exp. 149] | 100 to 500
O=C(O)c1csc(-n2nc(-c3ccccc3)c3ccc(NCC4CCOC4)cc32)n1 (stereo not drawn) [Exp. 150] | 100 to 500
CCC(C)CNc1ccc2c(-c3ccccc3)nn(-c3nc(C(=O)O)cs3)c2c1 (stereo not drawn) [Exp. 151] | 100 to 500
O=C(O)c1csc(-n2nc(-c3ccccc3)c3ccc(NCCc4ccccc4)cc32)n1 [Exp. 152] | 20 to 100
CCSc1ccc2c(-c3ccccc3)nn(-c3nc(C(=O)O)cs3)c2n1 [Exp. 165] | 100 to 500
CC(C)C(C)Sc1ccc2c(-c3ccccc3)nn(-c3nc(C(=O)O)cs3)c2n1 (stereo not drawn) [Exp. 166] | 100 to 500
O=C(O)c1csc(-n2nc(-c3ccccc3)c3ccc(N4CCC4)nc32)n1 [Exp. 167] | 20 to 100
O=C(O)c1csc(-n2nc(-c3ccccc3)c3ccc(Sc4ccccc4F)nc32)n1 [Exp. 175] | 20 to 100
O=C(O)c1csc(-n2nc(-c3ccccc3)c3ccc(SCc4ccccc4)nc32)n1 [Exp. 176] | 100 to 500
O=C(O)c1csc(-n2nc(-c3ccccc3)c3ccc(Sc4cccc(O)c4)nc32)n1 [Exp. 178] | 20 to 100

The next lines start with the values.

IC50 [nM] | SMILES
≤ 20 | Cc1ccccc1-c1nn(-c2nc(C(=O)O)cs2)c2ccccc12 [Exp.9]
≤ 20 | O=C(O)c1csc(-n2nc(-c3ccccc3)c3c2CC(C(F)(F)F)CC3)n1 (stereo not drawn) [Exp.102]
≤ 20 | O=C(O)c1csc(Cn2nc(-c3ccccc3)c3ccc(C(F)(F)F)cc32)n1 [Exp.104]
≤ 20 | O=C(O)c1csc(-n2nc(C3=CCCCO3)c3ccc(C(F)(F)F)cc32)n1 [Exp.105]
≤ 20 | O=C(O)c1csc(-n2nc(-c3ccccc3)c3ccc(C(F)(F)F)nc32)n1 [Exp.106]
≤ 20 | O=C(O)c1ccc2c(-c3ccccc3)nn(-c3nc(C(=O)O)cs3)c2c1 [Exp.119, 2-(6-Carboxy-3-phenyl-1H-indazol-1-yl)thiazole-4-carboxylic acid]
≤ 20 | CN(C)c1ccc2c(-c3ccccc3)nn(-c3nc(C(=O)O)cs3)c2c1 [Exp.154]
≤ 20 | O=C(O)c1csc(-n2nc(-c3ccccc3)c3ncc(C(F)(F)F)cc32)n1 [Exp.164]
≤ 20 | O=C(O)c1csc(-n2nc(-c3ccccc3)c3ccc(Cl)cc32)n1 [Exp. 156]
≤ 20 | O=C(O)c1csc(-n2nc(-c3ccccc3)c3ccc(Br)cc32)n1 [Exp. 157]
≤ 20 | O=C(O)c1csc(-n2nc(-c3ccccc3)c3ccc(I)cc32)n1 [Exp. 158]
≤ 20 | C/C=C/c1ccc2c(-c3ccccc3)nn(-c3nc(C(=O)O)cs3)c2c1 [Exp. 159]
≤ 20 | C/C=C\c1ccc2c(-c3ccccc3)nn(-c3nc(C(=O)O)cs3)c2c1 [Exp. 160]
≤ 20 | C=Cc1ccc2c(-c3ccccc3)nn(-c3nc(C(=O)O)cs3)c2c1 [Exp. 162]
